Active and inactive are the calls of the source. No cut-off for these calls is given here.
What was measured:
B-cell [1] = test: Immunosuppressive activity in B cells (unknown origin) assessed as inhibition of LPS-induced cell proliferation at 3 to 30 ng/mL; format: functional, cell-based
T-cell [2] = test: Immunosuppressive activity in T cells (unknown origin) assessed as inhibition of Con A-induced cell proliferation at 3 to 30 ng/mL; format: functional, cell-based
Mus musculus [3] = test: Toxicity in female ICR-SPF mouse assessed as autopsy changes at 30 mg/kg, iv administered as single dose measured 14 days post dose; format: organism-based; set-up: dose 30 mg/kg, route intravenous; settings: in vivo, 336 h
[4] = Toxicity in LPS-induced bone marrow-derived dendritic cells (unknown origin) assessed as effect on cell viability at 1 to 100 ng/mL; format: cell-based
Mus musculus [5] = test: Toxicity in female ICR-SPF mouse assessed as autopsy changes at 100 mg/kg, iv administered as single dose measured 14 days post dose; format: organism-based; set-up: dose 100 mg/kg, route intravenous; settings: in vivo, 336 h
Mus musculus [6] = test: Toxicity in male ICR-SPF mouse assessed as autopsy changes at 100 mg/kg, iv administered as single dose measured 14 days post dose; format: organism-based; set-up: dose 100 mg/kg, route intravenous; settings: in vivo, 336 h
Mus musculus [7] = test: Toxicity in female ICR-SPF mouse assessed as induction of body weight changes at 10 mg/kg, iv administered as single dose measured 14 days post dose; format: organism-based; set-up: dose 10 mg/kg, route intravenous; settings: in vivo, 336 h
Mus musculus [8] = test: Toxicity in male ICR-SPF mouse assessed as autopsy changes at 30 mg/kg, iv administered as single dose measured 14 days post dose; format: organism-based; set-up: dose 30 mg/kg, route intravenous; settings: in vivo, 336 h
Mus musculus [9] = test: Toxicity in C57BL/6 mouse assessed as induction of body weight loss at 1 mg/kg, iv dosed once daily for 4 days; format: organism-based; set-up: dose 1 mg/kg, route intravenous; settings: in vivo, 96 h
RAW264.7 = test: Inhibition of nitric oxide production in mouse RAW264.7 cells at 1 to 100 ng/mL; format: functional, cell-based
T-cell [10] = test: Immunosuppressive activity in T cells (unknown origin) assessed as inhibition of Con A-induced cell proliferation at 1 to 100 ng/mL; format: functional, cell-based
Mus musculus [11] = test: Toxicity in male ICR-SPF mouse assessed as mortality incidences at 30 mg/kg, iv administered as single dose measured 14 days post dose; format: organism-based; set-up: dose 30 mg/kg, route intravenous; settings: in vivo, 336 h
Mus musculus [12] = test: Toxicity in male ICR-SPF mouse assessed as induction of body weight changes at 10 mg/kg, iv administered as single dose measured 14 days post dose; format: organism-based; set-up: dose 10 mg/kg, route intravenous; settings: in vivo, 336 h
Mus musculus [13] = test: Immunosuppressive activity in zymosan A-induced arthritis C57BL/6 mouse model assessed as reduction in pLN weight increase dosed after zymosan A challenge; format: functional, organism-based
Mus musculus [14] = test: Toxicity in male ICR-SPF mouse assessed as induction of body weight changes at 100 mg/kg, iv administered as single dose measured 14 days post dose; format: organism-based; set-up: dose 100 mg/kg, route intravenous; settings: in vivo, 336 h
Mus musculus [15] = test: Toxicity in male ICR-SPF mouse assessed as mortality incidences at 10 mg/kg, iv administered as single dose measured 14 days post dose; format: organism-based; set-up: dose 10 mg/kg, route intravenous; settings: in vivo, 336 h
Mus musculus [16] = test: Toxicity in male ICR-SPF mouse assessed as autopsy changes at 10 mg/kg, iv administered as single dose measured 14 days post dose; format: organism-based; set-up: dose 10 mg/kg, route intravenous; settings: in vivo, 336 h
Mus musculus [17] = test: Toxicity in male ICR-SPF mouse assessed as induction of body weight changes at 30 mg/kg, iv administered as single dose measured 14 days post dose; format: organism-based; set-up: dose 30 mg/kg, route intravenous; settings: in vivo, 336 h
Mus musculus [18] = test: Toxicity in female ICR-SPF mouse assessed as mortality incidences at 10 mg/kg, iv administered as single dose measured 14 days post dose; format: organism-based; set-up: dose 10 mg/kg, route intravenous; settings: in vivo, 336 h
Mus musculus [19] = test: Toxicity in iv dosed male ICR-SPF mouse administered as single dose measured 14 days post dose; format: organism-based; settings: in vivo, 336 h
B-cell [20] = test: Immunosuppressive activity in B cells (unknown origin) assessed as inhibition of LPS-induced cell proliferation at 1 to 100 ng/mL; format: functional, cell-based
Dendritic cell = test: Inhibition of LPS-induced IL-12 production in bone marrow-derived dendritic cells (unknown origin) at 1 to 100 ng/mL; format: functional, cell-based
Mus musculus [21] = test: Toxicity in female ICR-SPF mouse assessed as autopsy changes at 10 mg/kg, iv administered as single dose measured 14 days post dose; format: organism-based; set-up: dose 10 mg/kg, route intravenous; settings: in vivo, 336 h
Mus musculus [22] = test: Toxicity in female ICR-SPF mouse assessed as induction of body weight changes at 100 mg/kg, iv administered as single dose measured 14 days post dose; format: organism-based; set-up: dose 100 mg/kg, route intravenous; settings: in vivo, 336 h
Mus musculus [23] = test: Toxicity in female ICR-SPF mouse assessed as mortality incidences at 100 mg/kg, iv administered as single dose measured 14 days post dose; format: organism-based; set-up: dose 100 mg/kg, route intravenous; settings: in vivo, 336 h
Macrophage = test: Inhibition of nitric oxide production in bone marrow-derived macrophages (unknown origin) at 1 to 100 ng/mL; format: functional, cell-based
Mus musculus [24] = test: Toxicity in iv dosed female ICR-SPF mouse administered as single dose measured 14 days post dose; format: organism-based; settings: in vivo, 336 h
Mus musculus [25] = test: Toxicity in C57BL/6 mouse assessed as induction of body weight loss at 0.1 to 3 mg/kg, iv dosed once daily for 4 days; format: organism-based; set-up: dose 0.1-3 mg/kg, route intravenous; settings: in vivo, 96 h
Mus musculus [26] = test: Toxicity in female ICR-SPF mouse assessed as mortality incidences at 30 mg/kg, iv administered as single dose measured 14 days post dose; format: organism-based; set-up: dose 30 mg/kg, route intravenous; settings: in vivo, 336 h
Mus musculus [27] = species: Mus musculus; test: Immunosuppressive activity in SRBC immunized mouse assessed as suppression of B-cell mediated immune response; format: functional, organism-based
Mus musculus [28] = test: Toxicity in male ICR-SPF mouse assessed as mortality incidences at 100 mg/kg, iv administered as single dose measured 14 days post dose; format: organism-based; set-up: dose 100 mg/kg, route intravenous; settings: in vivo, 336 h
Mus musculus [29] = test: Intestinal toxicity in C57BL/6 mouse assessed as induction of intestinal dilation at 1 mg/kg, iv dosed once daily for 4 days; format: organism-based; set-up: dose 1 mg/kg, route intravenous; settings: in vivo, 96 h
Mus musculus [30] = test: Immunosuppressive activity in carrageenan-induced paw edema C57BL/6 mouse model assessed as reduction in pLN weight increase dosed after carrageenan challenge; format: functional, organism-based
Mus musculus [31] = test: Toxicity in C57BL/6 mouse assessed as induction of spleen weight loss at 0.1 to 3 mg/kg, iv dosed once daily for 4 days; format: organism-based; set-up: dose 0.1-3 mg/kg, route intravenous; settings: in vivo, 96 h
Mus musculus [32] = test: Toxicity in female ICR-SPF mouse assessed as induction of body weight changes at 30 mg/kg, iv administered as single dose measured 14 days post dose; format: organism-based; set-up: dose 30 mg/kg, route intravenous; settings: in vivo, 336 h

COc1ccc(-c2ccc(OC)c(=O)cc2)c(OC)c1OC
inhibition (B-cell [1]): Active
inhibition (T-cell [2]): Active

COc1cc(/C=C/c2ccc(OC)c(=O)cc2)cc(OC)c1OC
inhibition (B-cell [1]): inactive
inhibition (T-cell [2]): inactive

COc1cc2c(c(OC)c1OC)-c1ccc(SC)c(=O)cc1CCC2
Activity (Mus musculus [3]): Non-toxic
Activity [4]: Non-toxic
Activity (Mus musculus [5]): Non-toxic
Activity (Mus musculus [6]): Non-toxic
Activity (Mus musculus [7]): Non-toxic
Activity (Mus musculus [8]): Non-toxic
Activity (Mus musculus [9]): Non-toxic
inhibition (RAW264.7): Active
inhibition (T-cell [10]): Dose-dependent effect
Activity (Mus musculus [11]): Non-toxic
Activity (Mus musculus [12]): Non-toxic
inhibition (Mus musculus [13]): Dose-dependent effect
Activity (Mus musculus [14]): Non-toxic
Activity (Mus musculus [15]): Non-toxic
Activity (Mus musculus [16]): Non-toxic
Activity (Mus musculus [17]): Non-toxic
Activity (Mus musculus [18]): Non-toxic
MLD (Mus musculus [19]): > 100 mg/kg
inhibition (B-cell [20]): Dose-dependent effect
inhibition (Dendritic cell): Dose-dependent effect
Activity (Mus musculus [21]): Non-toxic
Activity (Mus musculus [22]): Non-toxic
Activity (Mus musculus [23]): Non-toxic
inhibition (Macrophage): inactive
MLD (Mus musculus [24]): > 100 mg/kg
Activity (Mus musculus [25]): Non-toxic
Activity (Mus musculus [26]): Non-toxic
Activity (Mus musculus [27]): Dose-dependent effect
Activity (Mus musculus [28]): Non-toxic
Activity (Mus musculus [29]): Non-toxic
inhibition (Mus musculus [30]): Dose-dependent effect
Activity (Mus musculus [31]): Non-toxic
Activity (Mus musculus [32]): Non-toxic

COc1cc2c(c(OC)c1OC)-c1ccc(SC)c(=O)cc1C=CC2
Activity (Mus musculus [3]): Non-toxic
Activity [4]: Non-toxic
Activity (Mus musculus [5]): Non-toxic
Activity (Mus musculus [6]): Non-toxic
Activity (Mus musculus [7]): Non-toxic
Activity (Mus musculus [8]): Non-toxic
Activity (Mus musculus [9]): Non-toxic
inhibition (RAW264.7): Active
inhibition (T-cell [10]): Dose-dependent effect
Activity (Mus musculus [11]): Non-toxic
Activity (Mus musculus [12]): Non-toxic
inhibition (Mus musculus [13]): Dose-dependent effect
Activity (Mus musculus [14]): Non-toxic
Activity (Mus musculus [15]): Non-toxic
Activity (Mus musculus [16]): Non-toxic
Activity (Mus musculus [17]): Non-toxic
Activity (Mus musculus [18]): Non-toxic
MLD (Mus musculus [19]): > 100 mg/kg
inhibition (B-cell [20]): Dose-dependent effect
inhibition (Dendritic cell): Dose-dependent effect
Activity (Mus musculus [21]): Non-toxic
Activity (Mus musculus [22]): Non-toxic
Activity (Mus musculus [23]): Non-toxic
inhibition (Macrophage): inactive
MLD (Mus musculus [24]): > 100 mg/kg
Activity (Mus musculus [25]): Non-toxic
Activity (Mus musculus [26]): Non-toxic
Activity (Mus musculus [27]): Dose-dependent effect
Activity (Mus musculus [28]): Non-toxic
Activity (Mus musculus [29]): Non-toxic
inhibition (Mus musculus [30]): Dose-dependent effect
Activity (Mus musculus [31]): Non-toxic
Activity (Mus musculus [32]): Non-toxic

COc1cc2c(c(OC)c1OC)-c1ccc(SC)c(=O)cc1[C@@H](NC(=O)C1CC1C)CC2 (stereo partly specified)
Activity (Mus musculus [25]): Toxic
Activity (Mus musculus [29]): Toxic
Activity (Mus musculus [31]): Toxic

COc1ccc(-c2ccc(SC)c(=O)cc2)c(OC)c1OC
inhibition (B-cell [1]): Active
inhibition (T-cell [2]): Active

COc1ccc(C/C=C/c2ccc(OC)c(=O)cc2)c(OC)c1OC
inhibition (B-cell [1]): inactive
inhibition (T-cell [2]): inactive

COc1ccc(/C=C/c2ccc(OC)c(=O)cc2)c(OC)c1OC
inhibition (B-cell [1]): inactive
inhibition (T-cell [2]): inactive

COc1cc(C/C=C/c2ccc(OC)c(=O)cc2)cc(OC)c1OC
inhibition (B-cell [1]): inactive
inhibition (T-cell [2]): inactive
